This is an account of results in US20220306640A1, “HYDANTOIN DERIVATIVE” (ONO PHARMACEUTICAL CO., LTD., priority 2019, published 2022).

In general, inhibition refers to the drop in the measured response relative to a control, in per cent.

For assay [1], the target named is KDR (Homo sapiens, UniProt P35968). Kind of assay: Evaluation of kinase selectivity: % inhibition rate of KDR at 1 μmol/L. As to conditions: compound at 1 μmol/L. In kind it is biochemical. The method, then:
Biological Example 3: Evaluation of Kinase Selectivity
% inhibition rate with respect to various kinases (for example KDR etc.) of 1 μmol/L the test compound is measured.
A general assay condition (substrates, cofactor, ATP concentrations and reaction time etc.) suitable for respective kinase enzyme inhibition activity test is used.
1 Prepare the test compounds into 1 mmol/L DMSO solution. 2 Transfer 20 nL of stock to 384 assay plate. Use DMSO as High and Low controls.
1 Prepare the 1.3× Enzyme solution containing enzyme, substrate and cofactors. 2 Add 15 μL of 1.3× Enzyme solutions to each well and incubate the plate at room temperature for 30 min. 3 Initiate the reaction by adding 5 μL of 4×ATP solution. The final volume of each well should be 20 μL. 4 Incubate the plate at room temperature for reaction and add 75 μL of stopping buffer (containing 0.5 mol/L EDTA) to terminate the reaction.
Analyze the sample of each well using EZ reader (PerkinElmer).
Calculate the % Inhibition using read conversion ratio (CR) following the equation as below.
Use well treated with DMSO as High Control Use well without enzyme as Low Control

Assay [2] has as its target T1, DDR1 phosphorylation in kidney (Mus musculus, UniProt Q03146).
T1 construct: from tissue; host or cells: kidney of C57BL/6J mice (UUO model)
T1 sequence (Q03146 20-911): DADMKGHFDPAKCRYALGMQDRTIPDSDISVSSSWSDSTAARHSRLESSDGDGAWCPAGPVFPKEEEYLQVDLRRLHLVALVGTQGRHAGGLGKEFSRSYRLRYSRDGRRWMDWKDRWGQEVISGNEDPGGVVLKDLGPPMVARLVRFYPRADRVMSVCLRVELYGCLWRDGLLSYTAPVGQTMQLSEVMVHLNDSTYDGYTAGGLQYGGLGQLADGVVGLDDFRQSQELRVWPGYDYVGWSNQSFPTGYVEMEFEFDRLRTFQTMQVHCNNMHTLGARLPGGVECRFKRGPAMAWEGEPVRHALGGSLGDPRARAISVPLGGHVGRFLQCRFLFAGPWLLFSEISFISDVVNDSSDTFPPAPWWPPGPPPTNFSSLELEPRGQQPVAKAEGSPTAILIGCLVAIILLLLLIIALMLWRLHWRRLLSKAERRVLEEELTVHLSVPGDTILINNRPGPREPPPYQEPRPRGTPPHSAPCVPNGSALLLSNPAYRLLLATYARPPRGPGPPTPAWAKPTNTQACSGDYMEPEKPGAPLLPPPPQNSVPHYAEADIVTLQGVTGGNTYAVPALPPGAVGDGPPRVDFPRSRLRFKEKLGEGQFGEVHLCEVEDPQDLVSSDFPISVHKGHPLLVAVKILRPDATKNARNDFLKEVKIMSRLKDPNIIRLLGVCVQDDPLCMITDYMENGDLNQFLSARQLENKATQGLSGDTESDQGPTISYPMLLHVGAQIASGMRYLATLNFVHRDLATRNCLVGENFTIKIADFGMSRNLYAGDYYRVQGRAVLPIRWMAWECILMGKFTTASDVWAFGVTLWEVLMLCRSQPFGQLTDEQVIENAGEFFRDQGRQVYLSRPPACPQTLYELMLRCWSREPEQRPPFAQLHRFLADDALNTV
Kind of assay: Measurement of DDR1 phosphorylation suppression rate by using UUO (unilateral ureteral obstruction) model (in vivo test). More on the design: species or system C57BL/6J mice. As to conditions: UUO mice, dose of 10 mg/kg, oral single dose, kidney 8 h after dosing, relative to the difference between the untreated group and control group. The method, then: Biological Example 4: Measurement of DDR1 phosphorylation suppression rate by using UUO (unilateral ureteral obstruction) model (in vivo test).
Species & Strain: C57BL/6J mice
Mice were randomly assigned to respective groups based on the animal's body weight.
Surgery was performed in male C57BL/6J mice on Day 0. With the mice under anesthesia, operation area was disinfected with 75% alcohol after shaving. Mice in UUO group were exposed left ureter through a small incision on the left side of the abdomen and ligated with 3-0 silk at two locations about 0.5 cm below the renal hilum. Normal control mice were had their ureters manipulated but not ligated. Zoletil combined with Xylazine (20:1, v:v) were used in this study, the final dose of Zoletil was 25 mg/kg.
Route: oral administration
Dosage: 1, 3 and 10 mg/kg
Body weights of all animals were measured prior surgery and prior dosing. Clinical observations of all animals were monitored and recorded daily throughout the study. […]
On Day 3, all animals were euthanized with carbon dioxide. […] Then the samples were analyzed by Elisa.
DDR1 and p-DDR1 levels in ipsilateral kidney samples were analyzed by Elisa method. […]
All statistical tests were conducted, and the level of significance was set at 5% or P<0.05. The group means and standard deviation were calculated for all measurement parameters as study designed. […]

Sequence of KDR (P35968 20-1356, species assumed): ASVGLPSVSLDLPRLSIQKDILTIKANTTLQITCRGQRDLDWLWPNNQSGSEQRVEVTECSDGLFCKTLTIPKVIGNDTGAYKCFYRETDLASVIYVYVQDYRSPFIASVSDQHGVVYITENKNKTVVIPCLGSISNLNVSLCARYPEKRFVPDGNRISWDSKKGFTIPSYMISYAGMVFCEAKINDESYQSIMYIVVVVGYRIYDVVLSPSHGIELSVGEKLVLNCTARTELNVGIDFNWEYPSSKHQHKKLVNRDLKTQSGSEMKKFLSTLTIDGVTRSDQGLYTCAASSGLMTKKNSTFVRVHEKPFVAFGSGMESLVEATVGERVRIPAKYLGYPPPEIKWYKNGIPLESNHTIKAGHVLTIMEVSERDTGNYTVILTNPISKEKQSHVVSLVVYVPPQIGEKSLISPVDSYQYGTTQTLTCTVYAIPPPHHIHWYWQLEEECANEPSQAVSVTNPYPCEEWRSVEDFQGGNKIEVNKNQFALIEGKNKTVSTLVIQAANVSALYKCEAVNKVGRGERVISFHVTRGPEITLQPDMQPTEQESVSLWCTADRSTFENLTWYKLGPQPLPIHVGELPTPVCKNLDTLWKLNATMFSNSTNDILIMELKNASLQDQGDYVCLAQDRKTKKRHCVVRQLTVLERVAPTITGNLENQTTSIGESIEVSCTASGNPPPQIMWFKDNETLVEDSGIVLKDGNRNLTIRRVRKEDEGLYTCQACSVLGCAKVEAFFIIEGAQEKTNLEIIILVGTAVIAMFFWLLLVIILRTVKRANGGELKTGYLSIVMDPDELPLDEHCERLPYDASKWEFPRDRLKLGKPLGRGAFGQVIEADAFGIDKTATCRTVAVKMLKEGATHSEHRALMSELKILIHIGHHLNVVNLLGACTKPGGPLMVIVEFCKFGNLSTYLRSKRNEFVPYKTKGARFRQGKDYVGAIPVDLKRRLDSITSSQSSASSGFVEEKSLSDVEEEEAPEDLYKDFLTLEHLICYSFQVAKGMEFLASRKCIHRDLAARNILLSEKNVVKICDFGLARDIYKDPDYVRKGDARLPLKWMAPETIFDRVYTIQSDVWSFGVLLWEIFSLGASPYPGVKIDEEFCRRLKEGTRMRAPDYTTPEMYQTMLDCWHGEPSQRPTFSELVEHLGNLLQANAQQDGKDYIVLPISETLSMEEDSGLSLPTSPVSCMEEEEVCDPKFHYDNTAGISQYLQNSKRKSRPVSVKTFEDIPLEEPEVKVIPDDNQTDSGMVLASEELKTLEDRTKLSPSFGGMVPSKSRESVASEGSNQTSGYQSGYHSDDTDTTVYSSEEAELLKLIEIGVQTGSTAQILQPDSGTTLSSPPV

Turning to `Cc1cc(Oc2ccnc(N)n2)ccc1N1C(=O)CN(c2ccc(F)c(OC(F)(F)F)c2)C1=O` [Example 3(110), 3-{4-[(2-amino-4-pyrimidinyl)oxy]-2-methylphenyl}-1-[4-fluoro-3-(trifluoromethoxy)phenyl]-2,4-imidazolidinedione], the inhibition at 1 µM in assay [1] stood at 4%. In assay [2], this molecule had a DDR1 phosphorylation suppression of 50%.
